This is an account of results in US6646137B1, “Non-peptide GnRH agents” (priority 1998, dated 2003).

The target in this assay is T1, human GnRH receptor (Homo sapiens, UniProt P30968).
T1 construct: The cDNA for the human GnRH receptor is cloned into the plasmid expression vector, pcDNA 3; expressed in transfected cells; host or cells: HEK 293 cells, stably transfected (pcDNA 3); membrane preparation
T1 sequence (P30968 1-328): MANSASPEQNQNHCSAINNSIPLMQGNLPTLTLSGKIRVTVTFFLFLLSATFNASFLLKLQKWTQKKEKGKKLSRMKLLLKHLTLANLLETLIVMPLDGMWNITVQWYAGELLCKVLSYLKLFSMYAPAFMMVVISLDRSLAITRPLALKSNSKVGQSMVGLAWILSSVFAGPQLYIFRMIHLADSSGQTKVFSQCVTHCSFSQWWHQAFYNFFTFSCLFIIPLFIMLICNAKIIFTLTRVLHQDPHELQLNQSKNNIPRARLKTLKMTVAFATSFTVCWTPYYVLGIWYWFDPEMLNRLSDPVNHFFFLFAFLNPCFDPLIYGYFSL
Put plainly: GnRH receptor competitive radioligand binding assay (125I-GnRH-A, HEK 293 cell membranes). The following applies: compound at 10 μM. From the text: The cDNA for the human GnRH receptor is cloned into the plasmid expression vector, pcDNA 3 (In Vitrogen), and stably transfected in HEK 293 cells (a cell line developed by Dr. Stuart Sealfon, Mount Sinai Medical School, New York, N.Y.).
The human GnRH receptor (hGnRH) is cloned into pcDNA 3 (In Vitrogen), which provides high-level expression and a neomycin resistance marker. Lipofectamine (GIBCO BRL) is used to transfect HEK 293 cells with plasmid DNA. This method involves mixing the plasmid and reagent in serum-free medium, allowing DNA-liposome complexes to form, and overlaying cells with this solution. The HEK 293 cells are plated (seeded) on a 10-cm tissue culture dish at a density of 3×10^6 cells/dish the day before transfection. For each plate, 8 μg DNA plus 0.8 mL serum-free medium is mixed with 48 μL lipofectamine plus 0.8 mL serum-free medium, followed by incubation for 30 minutes at room temperature to allow DNA-liposome complexes to form. Serum-free medium is added to give a final volume of 6 mL/plate. The cells are rinsed twice with serum-free medium and overlayed with the DNA-liposome mixture. Five hours after transfection, an equal volume (6 mL) of medium containing 20% FBS (fetal bovine serum) is added. The cells are fed with fresh complete medium 18-24 hours after transfection. The cells are split 72 hours following transfection, at densities of 1:10 and 1:20. Stable tranformants are selected for by growth of the cells in antibiotic containing medium (G418, Sigma Chemical Company (also known as Geneticin)). Colonies are isolated and tested for receptor expression by radioligand binding and by measuring phosphoinositol turnover.
HEK 293 cells stably transfected with human GnRH receptors as described above are grown in MEM (minimal essential medium, available from Sigma Chemical Company) supplemented with 0.1% G418 (Sigma Chemical Company). Cells are homogenized in buffer A containing 50 mM Tris (pH 74.), 0.32M sucrose, 2 mM ethyleneglycol-bis(β-aminoethyl)-N,N,N′,N′-tetraacetic acid (EGTA), 1 mM phenylmethylsulfonyl fluoride (PMSF), 5 μg/mL aprotinen, 5 μg/mL Pepstatin A, and 1 μg/mL leupeptin. The homogenized cells are centrifuged at 4° C. at 20,000×g for 25 minutes, resuspended in buffer A, and recentrifuged at 4° C. at 20,000×g for an additional 25 minutes. Total membrane protein is determined with a BCA kit (Pierce, Rockford, Ill.). Membranes are stored at −70° C. at a final membrane protein concentration of 5 mg/mL.
The radioiodinated agonist analog of GnRH, [des-Gly^10, D-Ala^8]GnRH ethylamide (GnRH-A), is used as the labeled ligand. One μg of GnRH-A diluted in 0.1M acetic acid is added to an lodogen®-coated borosilicate glass tube pierce) containing 35 μL of 0.05M phosphate buffer (pH 7.4-7.6) and 1 mCi of Na[^125I]. The reaction mixture is vortexed and incubated for 1 minute at room temperature. After one minute, the mixture is vortexed again and allowed to incubate for an additional minute. Two mL of 0.5M acetic acid/1% BSA is added to the reaction tube, and the mixture is added to a C18 Sep-Pak cartridge. The cartridge is washed with subsequent washes of 5 mL H2O and 5 mL 0.5M acetic acid, and then eluted with 5×1 mL of 60% CH3CN/40% 0.5M acetic acid. The eluant is diluted with 3×volume of HPLC buffer A (0.1% TFA in H2O) and loaded onto a C18 column. The iodinated product is eluted over 20-25 minutes with a gradient of 25-100% CH3CN containing 0.1% TFA. The radioactive fractions (750 μL/fraction) are collected into clean polypropylene tubes containing 10 μL of 10% BSA. Fractions are assessed for biological activity by radioligand binding. Active fractions are utilized to screen the compounds for competitive binding assays.
HEK 293 cell membranes stably expressing hGnRHR (human GnRH receptors) are diluted to 0.5-1.0 mg/mL with assay buffer containing 50 mM HEPES (pH 7.4), 1 mM ethylenediarninetetraacetic acid (EDTA), 2.5 mM MgCl2, and 0.1% BSA. […]

Setting [1] is: average of 1st and 2nd test, read-out: Average % Remaining (percent of specific binding remaining).
Where [2] appears, read: crude compounds, 125I-GnRH-A, lower value = higher inhibition, read-out: % Remaining 1st Test (percent of specific binding remaining).
Setting [3] is: crude compounds, 125I-GnRH-A, lower value = higher inhibition, read-out: % Remaining 2nd Test (percent of specific binding remaining).

Like-named read-outs stand apart in the source and are kept apart here.

Turning to `CC(=O)N(Cc1cc2c(cc1C)C(C)(C)CCC2(C)C)CC1CCCC(CNC(=N)N)C1` (stereo not drawn) [Compound 57], the remaining activity at 10 µM reads like this: under setting [1], 55%; under setting [2], 47%; under setting [3], 63%.
The matching figures for `Cc1cc2c(cc1CN(CC1CCCC(CNC(=N)N)C1)C(=O)c1ccc(Cl)nc1)C(C)(C)CCC2(C)C` (stereo not drawn) [Compound 58]: 59%, 57% and 60%.
The matching figures for `N=C(N)NCC1CCCC(CN(Cc2ccc(OCc3ccccc3)c(OCc3ccccc3)c2)C(=O)C2CCCCC2)C1` (stereo not drawn) [Compound 59]: 59%, 57% and 60%.
The corresponding values for `N=C(N)NCC1CCCC(CN(Cc2ccc(OCc3ccccc3)c(OCc3ccccc3)c2)C(=O)c2ccccc2)C1` (stereo not drawn) [Compound 62] are 52%, 49% and 55%.
With `CC(=O)N(Cc1ccc(OCc2ccccc2)c(OCc2ccccc2)c1)CC1CCCC(CNC(=N)N)C1` (stereo not drawn) [Compound 63], the remaining activity at 10 µM reads like this: under setting [1], 48%; under setting [2], 49%; under setting [3], 47%.
The matching figures for `N=C(N)NCC1CCCC(CN(Cc2ccc(OCc3ccccc3)c(OCc3ccccc3)c2)C(=O)c2ccc(Cl)nc2)C1` (stereo not drawn) [Compound 64]: 49%, 46% and 51%.
The matching figures for `N=C(N)NCC1CCCC(CN(Cc2ccc3c(c2)OCCO3)C(=O)c2cccc3ccccc23)C1` (stereo not drawn) [Compound 65]: 55%, 50% and 59%.
The matching figures for `N=C(N)NCC1CCCC(CN(Cc2ccc3c(c2)OCCO3)C(=O)c2ccc3ccccc3c2)C1` (stereo not drawn) [Compound 66]: 54%, 50% and 57%.
On to `CN(C)Cc1ccc(CN(CC2C=CCC3C4CC=CCC4OC23)C(=O)c2ccc3ccccc3c2)cc1` (stereo not drawn) [Compound 68], for which the remaining activity at 10 µM reads like this: under setting [1], 48%; under setting [2], 61%; under setting [3], 44%.
The matching figures for `CN(C)Cc1ccc(CN(Cc2ccc(OCc3ccccc3)c(OCc3ccccc3)c2)C(=O)c2cccs2)cc1` [Compound 69]: 57%, 59% and 54%.
The corresponding values for `CN(C)Cc1ccc(CN(Cc2ccc(OCc3ccccc3)c(OCc3ccccc3)c2)C(=O)c2ccco2)cc1` [Compound 70] are 45%, 47% and 48%.
With `CC(C)(C)c1ccc(CN(CC2CCC(CNC(=N)N)CC2)C(=O)c2ccco2)cc1` (stereo not drawn) [Compound 71], the remaining activity at 10 µM is, setting by setting: under setting [1], 60%; under setting [2], 54%; under setting [3], 65%.
For the molecule `CC(C)(C)c1ccc(CN(CC2CCC(CNC(=N)N)CC2)C(=O)c2cc3ccccc3s2)cc1` (stereo not drawn) [Compound 72], the remaining activity at 10 µM is, setting by setting: under setting [1], 52%; under setting [2], 49%; under setting [3], 54%.
The matching figures for `CC(C)(C)c1ccc(CN(CC2CCC(CNC(=N)N)CC2)C(=O)C2CCCC2)cc1` (stereo not drawn) [Compound 73]: 58%, 59% and 57%.
The corresponding values for `CN(C)COc1ccc(CN(CC2CCC(CNC(=N)N)CC2)C(=O)c2cc3ccccc3s2)cc1` (stereo not drawn) [Compound 74] are 50%, 51% and 48%.
As for `CC(=O)N(Cc1cccc(Oc2ccc(Cl)cc2)c1)CC1CCC(CNC(=N)N)CC1` (stereo not drawn) [Compound 75], the remaining activity at 10 µM under setting [1] worked out at 59%, the remaining activity at 10 µM under setting [2] worked out at 59% and the remaining activity at 10 µM under setting [3] worked out at 58%.
`N=C(N)NCC1CCC(CN(Cc2cccc(Oc3ccc(Cl)cc3)c2)C(=O)c2ccc(Cl)nc2)CC1` (stereo not drawn) [Compound 76]: the remaining activity at 10 µM reads like this: under setting [1], 60%; under setting [2], 60%; under setting [3], 60%.
On to `N=C(N)NCC1CCC(CN(Cc2cccc(Oc3ccc(Cl)cc3)c2)C(=O)C2CCCC2)CC1` (stereo not drawn) [Compound 77], for which the remaining activity at 10 µM was determined as 52% under setting [1], 48% under setting [2] and 56% under setting [3].
The matching figures for `N=C(N)NCC1CCC(CN(CC23CC=CCC2C2CC=CCC2O3)C(=O)c2cc3ccccc3s2)CC1` (stereo not drawn) [Compound 78]: 59%, 59% and 58%.
The corresponding values for `Cc1cc2c(cc1CN(CC1CCC(CNC(=N)N)CC1)C(=O)c1ccc([N+](=O)[O-])o1)C(C)(C)CCC2(C)C` (stereo not drawn) [Compound 79] are 49%, 50% and 48%.
Take `Cc1cc2c(cc1CN(CC1CCC(CNC(=N)N)CC1)C(=O)c1ccco1)C(C)(C)CCC2(C)C` (stereo not drawn) [Compound 80]: the remaining activity at 10 µM is -4% under setting [1], -4% under setting [2] and -4% under setting [3].
In the case of `Cc1cc2c(cc1CN(CC1CCC(CNC(=N)N)CC1)C(=O)COCc1ccccc1)C(C)(C)CCC2(C)C` (stereo not drawn) [Compound 81], the remaining activity at 10 µM under setting [1] is 27%, the remaining activity at 10 µM under setting [2] worked out at 28% and the remaining activity at 10 µM under setting [3] was 25%.
`COCC(=O)N(Cc1cc2c(cc1C)C(C)(C)CCC2(C)C)CC1CCC(CNC(=N)N)CC1` (stereo not drawn) [Compound 82]: the remaining activity at 10 µM is, setting by setting: under setting [1], 41%; under setting [2], 46%; under setting [3], 35%.
The corresponding values for `CC(=O)N(Cc1cc2c(cc1C)C(C)(C)CCC2(C)C)CC1CCC(CNC(=N)N)CC1` (stereo not drawn) [Compound 83] are 55%, 53% and 57%.
For the molecule `Cc1cc2c(cc1CN(CC1CCC(CNC(=N)N)CC1)C(=O)c1ccc(Cl)nc1)C(C)(C)CCC2(C)C` (stereo not drawn) [Compound 84], the remaining activity at 10 µM reads like this: under setting [1], 48%; under setting [2], 52%; under setting [3], 44%.
